# Reference: patent US11135186B2, “Regulators of the endoplasmic reticulum proteostasis network” (The Scripps Research Institute, priority 2015, dated 2021)
# Columns and labels:
# [1] = tested on: XBP1-RLuc reporter (IRE1/XBP1s arm of the UPR); experiment: XBP1-RLuc splicing reporter, 1536-well screen in HEK293T-Rex cells; type: cell-based; conditions: % Tg (500 nM) activation, triplicate confirmation screen at 6.8 μM, 18 h
# Description: To evaluate the selectivity of our screening hits for ATF6, we employed an alternative luciferase reporter to measure activation of the IRE1/XBP1s arm of the UPR. This reporter contains Renilla luciferase (RLuc) expressed out of frame downstream of the XBP1 splice site, preventing RLuc translation in the absence of stress (FIG. 2b)^36,37. In response to IRE1 activation, the 26-nt XBP1 intron is removed, producing a frame shift that allows for RLuc translation and activity. Robust dose-dependent activation of the XBP1-RLuc reporter upon addition of the ER stressors Tg and Tm was confirmed in HEK293T-Rex cells stably expressing the XBP1-RLuc reporter, producing a Z′ score of 0.75 for Tg.
# HEK293T-Rex cells incorporating either the ERSE-FLuc or XBP1s-RLuc reporters were collected by trypsinization and resuspended at a density of 500,000 cells per mL. The assay was started by dispensing 5 μL of cell suspension into each well of white, solid-bottom 1536-well plates using a flying reagent dispenser (FRD) and placed into an online incubator 3 h. Cells were then treated with 34 nL/well of either test compounds to give final concentrations of 6.8 μM, DMSO (Low control, final concentration 0.68%, 0% activation) or […] of Delta-7 thapsigargin (High control, final concentration 500 nM, 100% activation). Plates were incubated for 18 h at 37° C., removed from the incubator and equilibrated to room temperature for 10 min. Luciferase activity was detected by addition of 5 μL of ONE-Glo reagent (Promega) to each well. After a 10 min incubation time, light emission was measured with the ViewLux reader (PerkinElmer). The percent activation of each test compound was calculated as follows: % Activation=100*(Test Compound−Median Low Control)/(Median High Control ˜Median Low Control).
# ^FTTTR^A25T = experiment: [35S] metabolic labeling, secretion of flag-tagged TTR^A25T from HepG2^ATF6 cells; type: cell-based; conditions: 15 h pretreatment, 4 h chase; for degradation of ^FTTTR^A25T / reduction of ^FTTTR^A25T secretion: 10 μM
# Protocol: (§1) HepG2 cells or HEK293T cells plated on poly-D-lysine coated plates were metabolically labeled in DMEM-Cys/-Met (CellGro) supplemented with glutamine, penicillin/streptomycin, dialyzed fetal bovine serum, and EasyTag EXPRESS^35S Protein Labeling Mix (Perkin Elmer) for 30 min. Cells were washed twice with complete media and incubated in prewarmed DMEM for the indicated times. Media or lysates were harvested at the indicated times. Lysates were prepared in RIPA buffer with fresh protease inhibitor cocktail (Roche). FLAG tagged TTR variants or ALLC were immunopurified using M1 anti-FLAG agarose beads (Sigma-Aldrich) and washed three times with RIPA buffer. The immunoisolates were then eluted by boiling in Laemmli buffer and separated on SDS-PAGE. For total secreted media, 15 uL aliquots from media incubated for 4 hrs on pulsed cells were run on a SDS-PAGE. The gels were then dried, exposed to phosphorimager plates (GE Healthcare), and imaged with a Typhoon imager. Band intensities were quantified by densitometry in ImageQuant. Fraction secreted was calculated using the equation: fraction secreted=[extracellular [^35S]-LC signal at t=t/(extracellular [^35S]-LC signal at t=0+intracellular [^35S]-LC signal at t=0)]. Fraction remaining was calculated using the equation: [(extracellular [^35S]-LC signal at t=t+intracellular [^35S]-LC signal at t=t)/(extracellular [^35S]-LC signal at t=0+ intracellular [^35S]-LC signal at t=0)].
# ^FTTTR^WT = experiment: [35S] metabolic labeling, secretion of flag-tagged TTR^WT from HepG2^ATF6 cells; type: cell-based; conditions: 15 h pretreatment, 10 μM compound or 1 μM Tg, 4 h chase
# Protocol: as §1
# [2] = tested on: ALLC (amyloidogenic light chain); experiment: Light chain ELISA, ALLC from ALMC-2 plasma cells; type: cell-based, human; conditions: ALMC-2 cells; for EC50: read-out: EC50 of dose dependent reduction in ALLC secretion
# Protocol: ALMC-2 or KAS-6/1 plasma cells were plated 100,000 cells/well in 150 μL of media in 96-well MultiScreenHTS filtration plates (Millipore MSBVS1210). Triplicate wells were treated with DMSO or compounds at the indicated concentrations and incubated for 16 h. Media was removed by filtration using a QIAvac 96 vacuum manifold (Qiagen) and wells were washed two times with 150 μL media. Wells were then incubated with 150 μL of fresh media for 2 hr and the conditioned media was harvested into a 96-well plate using the vacuum manifold. Free λLC and IgG concentrations were determined by ELISA in 96-well plates (Immulon 4HBX, Thermo Scientific). Wells were coated overnight at 37° C. with rabbit anti-human A light chain polyclonal antibody (Bethyl Laboratories, A90-112A) at a 1:1000 dilution or human IgG-heavy and light chain antibody (Bethyl Laboratories, A80-118A) at a 1:2000 dilution in 50 mM sodium carbonate (pH 9.6). In between all incubation steps, the plates were rinsed extensively with Tris-buffered saline containing 0.05% Tween-20 (TBST). Plates were blocked with 5% non-fat dry milk in TBST for 1 h at 37° C. Media analytes were diluted between 5-200 fold in 5% non-fat dry milk in TBST and 100 μL of each sample was added to individual wells. Light chain or IgG standards ranging from 3-300 ng/mL were prepared from purified human Bence Jones A light chain or human reference serum (Bethyl Laboratories, P80-127 and RS10-110). Plates were incubated at 37° C. for 1.5 h while shaking. Finally, HRP-conjugated goat anti-human A light chain antibody (Bethyl Laboratories, A80-116P) was added at a 1:10,000 dilution or HRP-conjugate IgG-Fc fragment cross-adsorbed antibody (Bethyl Laboratories, A80-304P, 1:30,000 dilution) was added in 5% non-fat dry milk in TBST, followed by a 1.5 h incubation of the plates at 37° C. The detection was carried out with 2,2′-azinobis(3-ethylbenzothiazoline-6-sulfonic acid) (ABTS, 0.18 mg/mL) and 0.03% hydrogen peroxide in 100 mM sodium citrate pH 4.0. Detection solution (100 μL) was added to each well and the plates were incubated at room temperature. The absorbance was recorded at 405 nm and the values for the LC standards were fitted to a 4-parameter logistic function. Light chain or IgG concentrations were averaged from at least 3 independent replicates under each treatment and then normalized to vehicle conditions.
EC50 [2] [nM],Compound,% XBP1-RLuc activation [1] [%],^FTTTR^A25T secretion (in words) (^FTTTR^A25T; 10 μM compound or 1 μM Tg),degradation of ^FTTTR^A25T (^FTTTR^A25T),^FTTTR^WT secretion (in words) (^FTTTR^WT),reduction of ^FTTTR^A25T secretion (^FTTTR^A25T) [%],"reduction of ALLC secretion ([2]; 10 μM pretreatment, ELISA) [%]",ALLC intracellular protein levels ([2]; ELISA),ALLC secretion (in words) ([2]; 10 μM)
~1000,Cc1ccc(O)c(N/C=C/C(=O)c2ccc(F)cc2)c1 [Compound 132],10.3 ± 7.9,did not significantly influence,did not significantly influence,did not significantly influence,–,–,–,–
~1000,Cc1ccc(O)c(NC(=O)CCc2ccccc2)c1 [Compound 147],17.5 ± 1.9,–,increased degradation,did not significantly influence,45,60,unchanged,–
–,O=[N+]([O-])c1ccc(N/N=C/c2ccccc2O)cc1 [Compound 263],2.4 ± 1.0,–,increased degradation,did not significantly influence,45,–,–,only minimally affects
